In test [1] the target is T1, IspC (Escherichia coli, UniProt P45568).
T1 sequence (P45568 1-398): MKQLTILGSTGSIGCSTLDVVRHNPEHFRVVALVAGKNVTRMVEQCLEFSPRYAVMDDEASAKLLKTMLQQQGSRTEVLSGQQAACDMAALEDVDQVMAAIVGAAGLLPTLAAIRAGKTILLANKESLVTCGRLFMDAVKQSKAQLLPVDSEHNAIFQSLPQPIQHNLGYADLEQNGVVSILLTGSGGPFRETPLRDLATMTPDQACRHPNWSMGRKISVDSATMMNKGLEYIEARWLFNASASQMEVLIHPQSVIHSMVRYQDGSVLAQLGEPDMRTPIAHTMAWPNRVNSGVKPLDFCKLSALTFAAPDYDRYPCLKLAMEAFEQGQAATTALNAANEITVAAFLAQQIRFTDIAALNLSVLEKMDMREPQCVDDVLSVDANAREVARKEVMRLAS
The test can be described thus: Inhibition of the coupling enzyme IspC by BnAP. In kind it is biochemical. The conditions noted are these: up to 1.5 mM.

Test [2] concerns the target T2, E. coli DXP synthase (Escherichia coli, UniProt P77488).
T2 sequence (P77488 1-620): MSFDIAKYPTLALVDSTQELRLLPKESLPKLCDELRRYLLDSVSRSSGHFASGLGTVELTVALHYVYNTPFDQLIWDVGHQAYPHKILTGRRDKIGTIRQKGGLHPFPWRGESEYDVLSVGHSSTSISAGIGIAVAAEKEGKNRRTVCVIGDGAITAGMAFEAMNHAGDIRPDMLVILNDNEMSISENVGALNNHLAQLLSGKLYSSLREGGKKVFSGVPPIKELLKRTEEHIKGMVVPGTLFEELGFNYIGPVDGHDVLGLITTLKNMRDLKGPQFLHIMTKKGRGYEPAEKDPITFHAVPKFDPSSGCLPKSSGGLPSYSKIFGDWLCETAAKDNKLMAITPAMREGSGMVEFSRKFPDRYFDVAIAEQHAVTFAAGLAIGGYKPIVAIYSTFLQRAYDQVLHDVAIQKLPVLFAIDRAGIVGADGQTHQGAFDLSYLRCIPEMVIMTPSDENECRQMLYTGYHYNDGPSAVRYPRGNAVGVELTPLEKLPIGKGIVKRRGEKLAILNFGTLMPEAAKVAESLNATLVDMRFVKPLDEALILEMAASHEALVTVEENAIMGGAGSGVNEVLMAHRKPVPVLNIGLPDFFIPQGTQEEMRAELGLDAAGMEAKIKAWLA
In kind it is biochemical. The conditions noted are these: 100 mM HEPES pH 8.0, 10-20 mM pyruvate, 10% DMSO, 37 °C; average ± SEM, triplicate.

Test [3] deals with yeast TK. To be noted: cited from earlier work.
In test [4] the target is DXP synthase (Escherichia coli, UniProt P77488). The conditions noted are these: 0.5-5 mM nitroso substrate, 10-20 mM pyruvate, 37 °C, HPLC.
The subject of test [5] is Porcine PDH E1 subunit. As to the kind of experiment: Kinetic parameters of nitroso substrates with PDH. In kind it is biochemical. To be noted: read-out: PDH Km; 100 mM HEPES pH 8.0, 10-20 mM pyruvate, 10% DMSO, 37 °C; average ± SEM, triplicate.
Test [6] deals with T3, DXP synthase (Escherichia coli, UniProt P77488).
T3 sequence (P77488 1-620): T2 sequence (P77488 1-620)
The test can be described thus: Aromatic aldehydes as DXP synthase acceptor substrates. In kind it is biochemical.

The term kcat denotes the maximal rate divided by the concentration of active sites. One may read the Km as the concentration of substrate that gives half-maximal velocity.

For `CC(=O)P(=O)(O)OCc1ccccc1` [BnAP, benzylacetylphosphonate], in test [1], the “Inhibition of the coupling enzyme (IspC)” value is listed as “not observed”.
Turning to `O=C[C@H](O)COP(=O)(O)O` [D-GAP, D-glyceraldehyde 3-phosphate, reference compound], in test [2], the kcat amounted to 1.7 ± 0.12 s⁻¹.
Consider `CN(C)c1ccc(N=O)cc1` [Compound 4], for which the Km in test [2] came out at 54 ± 13 µM; in test [5] it was 408 ± 60 µM. Further, the kcat in test [2] was found to be 0.015 ± 0.0017 s⁻¹. In addition, the “Substrate for yeast TK” value in test [3] was “not a substrate”. Also, the “Substrate for DXP synthase (turnover)” value in test [4] is “is a substrate”.
Regarding `O=Nc1ccccc1` [Compound 1, nitrosobenzene], the kcat in test [2] is 2.92 ± 0.317 s⁻¹. For the same molecule, the Michaelis constant (Km) in test [5] worked out at 350 ± 30 µM.
For `O=Cc1c(O)cc([N+](=O)[O-])cc1[N+](=O)[O-]` [2-Hydroxy-4,6-dinitrobenzaldehyde], in test [6] (aromatic aldehyde as acceptor substrate), the kcat came to 0.00583 ± 0.00083 s⁻¹. Besides, the “Km relative to the natural substrate D-GAP” value in test [6] (fold higher than D-GAP) is reported as ~ 18 fold.

(Values after PMC3767973 (Chembiochem : a European journal of chemical biology, 2013).)
